We go through one compound from patent US12686703B2, “Cosmetic tetrapeptide, composition and use” (Sederma, priority 2020, dated 2026).

Format in all cases: cell-based
The test system of assay [1] is Outer Root Sheath Keratinocytes (ORSK). As to the kind of experiment: Proliferation study (EdU) on outer root sheath keratinocytes. The following applies: 5 ppm, p < 0.01. How it is done:
(§1) 2.1—Proliferation Studies on Cell Cultures (Hair Follicle Dermal Papilla Cells (HFDPC) and Outer Root Sheath Keratinocytes (ORSK))
(§2) The cells are seeded in adapted culture media and incubated for 24 h. Then the culture media are removed and changed for test media and cells are incubated. The cells are thereafter contacted with the peptide (diluted at different concentrations in DMSO) and with EdU (Ethynyldeoxyuridine), a thymidine-analogue nucleoside which is incorporate into the newly synthetized in proliferating cells. The cultures are stopped, and cells are labelled using a Edu detection kit.

A further assay concerns Fibrillin 1. As to the kind of experiment: Immunofluorescence assay of Fibrillin 1 formation in normal human fibroblasts. The following applies: 8 ppm; NHF, five-day incubation; p < 0.05. On the procedure:
Normal human fibroblasts (NHF) are cultured for at least 24 hours in fibroblast growth medium containing serum. Once confluence was reached, the cells are seeded, and the actives and corresponding controls diluted in a culture medium are added. At the end of a five-day incubation period, the supernatant is removed, the cells are washed with PBS and fixed. The cells are then incubated with the primary Fibrillin 1 monoclonal antibody (11C1.3) (Thermo Fisher) diluted in blocking buffer at a concentration of 1:200. The cells are incubated. The primary antibody is removed, and the cells are washed with PBS. The secondary antibody was added at a dilution of 1:1000 in blocking buffer, then removed and the cells are washed with PBS. The formation of Fibrillin 1 by the cells is visualized using a fluorescence microscope. The obtained images are analyzed using an image processing software assigning a numerical value to the coverage density.

In the next assay the test system is Collagen I (PIP). As to the kind of experiment: ELISA assay of collagen I synthesis (PIP assay) in normal human fibroblasts. As to conditions: concentrations of 5 to 15 ppm; NHF, 72 h contact; vs excipient; p < 0.01. How it is done: Normal human fibroblasts (NHF) in culture are brought into contact with the products to be tested or their excipient (negative control) for 72 h. At the end of the contact, the culture supernatants are removed, and the syntheses of the dermal macromolecules are estimated by ELISA assays. An estimate of cell viability is carried out by Hoechst assay to weight the obtained data.
Collagen I is evaluated via the PIP assay (carboxy-terminal propeptide of procollagen type I) which is a peptide fragment resulting from the enzymatic degradation of procollagen when the latter is excreted outside the fibroblast (therefore in the culture medium where the assay is carried out).

The subject of assay [2] is Hair Follicle Dermal Papilla Cells (HFDPC). As to the kind of experiment: Proliferation study (EdU) on hair follicle dermal papilla cells. As to conditions: p < 0.01. How it is done:
as §1, §2

Assay [3] has as its system whole hair follicles isolated from scalp explants. Kind of assay: Hair growth from hair follicle bulbs (isolated follicles in culture). On the procedure: Whole follicles (including the infundibulum, upper sheath, bulge, lower sheath, and bulb) are isolated by microdissection from scalp explants issued from surgery. On first day (DO), the hairs are placed individually in wells and keep alive at 37° C. in a humid atmosphere, enriched with 5% CO2, in an adapted culture medium.
Peptide solutions at 10 ppm and 5 ppm are prepared in the culture medium with 0.1% DMSO.
On D0, D3, D5 and D7, the peptide products are incorporated into the culture medium. The culture media are completely renewed for each treatment. The control cases receive no treatment other than renewal of the culture medium.
On day D0, the hairs are removed and stored frozen at −80° C. On D10, the hairs from each case are taken and treated in the same way.
A photograph of the isolated hairs is taken on DO to measure the hair from the bulb to the end of the hair shaft using an image analysis software. The photographs and length measurements are repeated on D3, D5, D7 and D10. The growth of each hair is monitored individually.
During the study, the hairs grow. To estimate the effect of the peptide, the average hair length between the peptide and the solvent control are compared, for each time (see below Table 5).

Marks after values point to notes of the source that are not given here. Where a SMILES comes first, the peptide text is derived from it. The star is where a group is joined. Palmitoyl = CCCCCCCCCCCCCCCC(=O)*

Consider `CCCCCCCCCCCCCCCC(=O)N[C@@H](CC(C)C)C(=O)N[C@@H](CC(C)C)C(=O)N[C@@H](C)C(=O)N[C@@H](CC(N)=O)C(=O)O` [Pal-LLAN-OH, palmitoyl-leucyl-leucyl-alanyl-asparagine] (Palmitoyl-LLAN-OH), for which the “Cell proliferation variation % vs. control solvent (DMSO)” value was “+55%” in assay [1], “+13.7%” in assay [2] (5 ppm) and “+22.15%” in assay [2] (10 ppm). Besides, the “Fibrillin 1” value in the assay on Fibrillin 1 is reported as “+108% (p < 0.05)”. Further, in the assay on Collagen I (PIP), the “Collagen I (PIP)” value is given as “+60%”. In addition, the “Growth variation compared to solvent control (0.1% DMSO)” value is given as “+21% (nsd)” in assay [3] (5 ppm, D3, nsd); “+26%*” in assay [3] (5 ppm, D5, p < 0.05); “+32%**” in assay [3] (5 ppm, D7, p < 0.01); “+30%**” in assay [3] (5 ppm, D10, p < 0.01); “+16% (nsd)” in assay [3] (10 ppm, D3, nsd); “+28%*” in assay [3] (10 ppm, D5, p < 0.05). Further, the “Growth variation compared to solvent control (0.1% DMSO)” value in assay [3] (10 ppm, D7, p < 0.01) is “+37%**”; in assay [3] (10 ppm, D10, p < 0.01), “+38%**”.
